From patent US20060183902A1, “Dihydroindolyl methanones as alpha 1a/1d adrenoreceptor modulators for the treatment of benign prostatic hypertrophy and lower urinary tract symptoms” (priority 2005, published 2006)
Each block holds one compound with its values, some of them ahead of it.

Legend:
[1] = biological target: T1, α1a-AR (Homo sapiens, UniProt P35348); test: α1-Adrenergic receptor radio-ligand (125I-HEAT) binding assay, α1a subtype; details: COS-7 cell membranes transfected with α1a-AR, 125I-HEAT 50 pM; read-out: Receptor Binding, Ki α1a-AR
T1 construct: expressed in transfected cells; host or cells: COS-7
T1 sequence (P35348 1-466): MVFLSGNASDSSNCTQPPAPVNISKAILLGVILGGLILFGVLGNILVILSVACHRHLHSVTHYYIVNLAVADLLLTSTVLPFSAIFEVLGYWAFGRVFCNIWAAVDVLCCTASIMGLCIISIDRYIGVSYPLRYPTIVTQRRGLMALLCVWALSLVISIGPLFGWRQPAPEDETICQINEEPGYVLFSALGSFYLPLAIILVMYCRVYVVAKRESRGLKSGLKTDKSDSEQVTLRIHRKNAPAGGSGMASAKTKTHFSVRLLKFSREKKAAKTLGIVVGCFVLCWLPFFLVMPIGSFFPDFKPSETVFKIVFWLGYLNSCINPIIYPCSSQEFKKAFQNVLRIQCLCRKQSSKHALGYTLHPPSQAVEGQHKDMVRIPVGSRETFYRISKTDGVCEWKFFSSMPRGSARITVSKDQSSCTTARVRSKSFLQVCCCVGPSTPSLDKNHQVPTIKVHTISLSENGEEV
How it was run: (§1)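 Membranes from COS-7 cells transfected with a single α1-AR subtype, incubated 1 h at rt with 50 pM 125I-HEAT and compound (1 pM–10 µM, half-log steps, final) in Tris/EDTA/NaCl pH 7.4. Bound radioactivity collected by GF/C filtration and scintillation counting, triplicates; Ki derived.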

[2] = biological target: T2, α1d-AR (Homo sapiens, UniProt P25100); test: α1-Adrenergic receptor radio-ligand (125I-HEAT) binding assay, α1d subtype; details: COS-7 cell membranes transfected with α1d-AR, 125I-HEAT 50 pM; read-out: Receptor Binding, Ki α1d-AR
T2 construct: expressed in transfected cells; host or cells: COS-7
T2 sequence (P25100 1-572): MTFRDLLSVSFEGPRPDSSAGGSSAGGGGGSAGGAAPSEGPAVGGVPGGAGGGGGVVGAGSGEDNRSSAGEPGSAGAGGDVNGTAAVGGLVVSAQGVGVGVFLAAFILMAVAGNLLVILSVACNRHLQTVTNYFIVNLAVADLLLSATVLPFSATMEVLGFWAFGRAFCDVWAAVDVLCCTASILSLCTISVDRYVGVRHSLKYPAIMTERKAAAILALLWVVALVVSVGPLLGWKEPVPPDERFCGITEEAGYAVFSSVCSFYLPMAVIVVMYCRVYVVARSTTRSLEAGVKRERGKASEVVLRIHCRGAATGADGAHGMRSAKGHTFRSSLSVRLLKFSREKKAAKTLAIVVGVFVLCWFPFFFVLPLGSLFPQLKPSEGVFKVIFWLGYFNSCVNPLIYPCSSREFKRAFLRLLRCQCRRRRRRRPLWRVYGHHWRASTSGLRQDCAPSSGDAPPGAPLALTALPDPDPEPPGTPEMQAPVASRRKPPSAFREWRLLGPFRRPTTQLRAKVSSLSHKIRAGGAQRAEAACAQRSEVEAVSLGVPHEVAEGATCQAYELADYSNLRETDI
How it was run: as §1

[3] = biological target: T3, α1b-AR (Homo sapiens, UniProt P35368); test: α1-Adrenergic receptor radio-ligand (125I-HEAT) binding assay, α1b subtype; details: COS-7 cell membranes transfected with α1b-AR, 125I-HEAT 50 pM; read-out: Receptor Binding, Ki α1b-AR
T3 construct: expressed in transfected cells; host or cells: COS-7
T3 sequence (P35368 1-520): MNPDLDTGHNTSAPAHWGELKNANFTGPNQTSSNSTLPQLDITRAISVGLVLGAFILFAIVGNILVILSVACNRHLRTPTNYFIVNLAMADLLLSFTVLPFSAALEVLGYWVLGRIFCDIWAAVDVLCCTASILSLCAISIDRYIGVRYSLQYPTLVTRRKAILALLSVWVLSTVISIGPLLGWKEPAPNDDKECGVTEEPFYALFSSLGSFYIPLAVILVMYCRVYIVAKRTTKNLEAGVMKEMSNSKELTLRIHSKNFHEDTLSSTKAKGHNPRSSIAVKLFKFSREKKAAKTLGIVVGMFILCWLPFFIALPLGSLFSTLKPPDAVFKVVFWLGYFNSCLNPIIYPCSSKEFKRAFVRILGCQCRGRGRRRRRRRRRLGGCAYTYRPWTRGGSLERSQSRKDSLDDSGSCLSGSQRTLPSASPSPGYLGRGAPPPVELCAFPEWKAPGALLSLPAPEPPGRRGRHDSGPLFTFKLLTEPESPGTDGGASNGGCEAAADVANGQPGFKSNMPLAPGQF
How it was run: as §1

[4] = tested on: BPH patients; details: clinical studies; cited from earlier work
[5] = tested on: α1a and α1d subtypes over the α1b subtype; details: cited from earlier work
[6] = tested on: normal rats and rats with bladder hypertrophy secondary to outlet obstruction; details: intrathecally administered; cited from earlier work

Ki [1]: 2.7 nM | Ki [2]: 9.4 nM | Ki [3]: 610 nM | melting point: 137 to 139 °C
SMILES: CC(C)Oc1ccccc1N1CCN(Cc2cccc(C(=O)N3CCc4ccc(NS(=O)(=O)c5cccc6c(N(C)C)cccc56)cc43)c2)CC1 [Cpd 32, 5-dimethylamino-naphthalene-1-sulfonic acid (1-{3-[4-(2-isopropoxy-phenyl)-piperazin-1-ylmethyl]-benzoyl}-2,3-dihydro-1H-indol-6-yl)-amide]

SMILES: CCOc1ccccc1OCCN[C@H](C)Cc1ccc(OC)c(S(N)(=O)=O)c1 [Tamsulosin]
effect on obstructive and irritative symptoms of BPH [4]: improvement in both obstructive and irritative symptoms | selective for the α1a and α1d subtypes over the α1b subtype [5]: about 15 fold

SMILES: COc1cc2nc(N3CCN(C(=O)C4COc5ccccc5O4)CC3)nc(N)c2cc1OC (stereo not shown) [doxazosin]
micturition pressure [6]: decrease in micturition pressure
